This note sets out measurements from patent US12012404B2, “Pyrimidoheterocyclic compounds and application thereof” (D3 BIO (WUXI) CO., LTD., priority 2020, dated 2024).

What all share (type): in vitro ADME
A short description of series [1]: In vitro stability in liver microsomes, cynomolgus monkeys. The note with it: 0.5 mg/mL. On the procedure: Purpose of the assay: Metabolic stabilities of the assay compounds in liver microsomes of CD-1 mice, SD rats, beagle dogs, cynomolgus monkeys, and human were assayed, respectively.
Procedure of the assay: Two 96-well incubation plates were prepared and named T60 incubation plate and NCF60 incubation plate, respectively. 445 μL of microsomal working solutions (liver microsomal protein concentration of 0.56 mg/mL) were added to the T60 incubation plate and the NCF60 incubation plate, respectively, and then the above incubation plates were pre-incubated in a 37° C. water bath for about 10 minutes.
After the pre-incubation, 5 μL of working solutions of the assay sample or the control compound were added to the T60 incubation plate and the NCF60 incubation plate, respectively, and the mixture was mixed well. 50 μL of potassium phosphate buffer was added to each well of the NCF60 incubation plate to initiate the reaction. 180 μL of stop solution (200 ng/mL tolbutamide and 200 ng/mL labetalol in acetonitrile) and 6 uL of NADPH regeneration system working solution were added to the T0 stop plate, and 54 μL of sample was transferred from T60 incubation plate to T0 stop plate (generation of TO sample). The reaction was initiated by adding 44 μL of NADPH regeneration system working solution to each well of the T60 incubation plate. Only 54 μL of microsome working solution, 6 uL of NADPH regeneration system working solution and 180 μL of stop solution were added to the Blank plate. Therefore, in samples of the assay compound or the control compound, the final reaction concentration of compound, testosterone, diclofenac and propafenone was 1 μM, the concentration of liver microsomes was 0.5 mg/mL, and the final reaction concentrations of DMSO and acetonitrile in the reaction system were 0.01% (v/v) and 0.99% (v/v), respectively.
After an appropriate time (e.g., 5, 15, 30, 45 and 60 minutes) of incubation, 180 μL of stop solutions (200 ng/mL tolbutamide and 200 ng/mL labetalol in acetonitrile) were added to the sample wells of each stop plate, respectively. 60 μL of sample was removed from the T60 incubation plate to stop the reaction. All sample plates were shaken well and then centrifuged at 3220×g for 20 minutes. Then 80 μL of supernatant was taken out from each well, and diluted in 240 μL of pure water for liquid chromatography-tandem mass spectrometry analysis. All samples were injected and analyzed by liquid chromatography-tandem mass spectrometry.

Series [2] is described as follows: Stability assay in plasma, CD-1 mice. The following applies: CD-1 mice plasma, 2 μM, 37° C. On the procedure: Purpose of the assay: Stabilities of the assay compounds in plasma of CD-1 mice and human were assayed, respectively.
Procedure of the assay: Cryopreserved plasma was thawed for 10-20 min. After the plasma was completely thawed, it was placed in a centrifuge and centrifuged at 3220×g for 5 min to remove any suspended matter and sediment in the plasma. 96-well incubation plates were prepared and named TO, T10, T30, T60, T120, respectively. 98 μL of blank plasmas of mouse, rat, canine, monkey and human were added to the corresponding incubation plates, then 2 μL of working solutions of the compound or the control compound were added to the corresponding plates in duplicate. All samples were incubated in a 37° C. water bath. The final incubation concentrations of the compound and the control compounds bisacodyl, enalapril maleate, procaine and probanthine were 2 μM, and the final organic phase content was 2.0%. At the end of incubation for each time point, the corresponding incubation plate was removed and 400 μL of a solution of 200 ng/mL of tolbutamide and labetalol in acetonitrile was added to each corresponding sample well to precipitate the protein. All sample plates were sealed and shaken well, and then centrifuged at 3220×g for 20 minutes. 50 μL of supernatant was taken out and diluted in 100 μL of ultrapure water. All samples were mixed well and then analyzed by LC/MS/MS.

Series [3] can be described thus: Stability assay in whole blood, CD-1 mice. The note with it: CD-1 mice whole blood, 5 μM, 37° C. On the procedure: (§1) Purpose of the assay: Stabilities of the assay compounds in whole blood of CD-1 mice, SD rats, Beagle dogs and cynomolgus monkeys were assayed, respectively.
(§2) Procedure of the assay: On the day of the assay or the day before the assay, fresh whole blood from CD-1 mice, SD rats, beagle dogs, and cynomolgus monkeys was collected using anticoagulant EDTA-K2. Prior to the start of the assay, the whole blood was mixed with PBS in 1:1 (v:v) and the mixture was preheated in a 37° C. water bath for 10-20 minutes. […] […] All samples were incubated in a 37° C. water bath. The final incubation concentration of the compound was 5 μM and the final incubation concentration of the control compound was 2 μM. At the end of incubation for each time point, the corresponding incubation plate was removed and 100 μL of ultrapure water was immediately added to the corresponding sample wells, and mixed well. 800 μL of a solution of 200 ng/mL tolbutamide and labetalol in acetonitrile was added to precipitate the protein. The sample plates were sealed and shaken well, and then centrifuged at 3220×g for 20 min. 150 μL of supernatant was taken out and analyzed by LC/MS/MS.

Series [4] in a line: Stability assay in whole blood, cynomolgus monkeys. The note with it: 5 μM, 37° C. The procedure: as §1, §2
In series [5] the test system is plasma protein of cynomolgus monkeys. The experiment in a line: Protein binding rate by equilibrium dialysis, cynomolgus monkeys plasma. The note with it: 2 μM, dialysis 4 hours. The procedure:
Purpose of the assay: Protein binding rate of the assay compounds in plasma of CD-1 mice, SD rats, beagle dogs, cynomolgus monkeys and human was determined by equilibrium dialysis.
Procedure of the assay: Plasma samples with a compound concentration of 2 μM were prepared using plasma of the above five species, placed in a 96-well equilibrium dialysis device, and dialyzed with phosphate buffer solution at 37±1° C. for 4 hours. Warfarin was used as the control compound in this assay. The concentrations of the assay compounds in plasma and dialysis buffer were determined by LC-MS/MS method.
For orientation: In equilibrium dialysis only unbound substance equilibrates across the membrane.

Structures are written as SMILES.

Take `C=C(F)C(=O)N1CCN(c2nc(OCC3CCCN3C)nc3c2COC(c2c(F)c(N)cc(C)c2C(F)(F)F)C3)CC1CC#N.Cl` (single isomer, unassigned) [Compound 8B hydrochloride]: in series [1] (1 μM), the “CLint(liver)” value stood at 80.3 mL/min/kg, the CLint(mic) came out at 59.5 µL/min/mg and the T1/2 was 23.3 min. In addition, in series [2], the “Detection of assay compound content within 120 min” value (“Detection” below) is 110%. Also, in series [3], the “Detection” value is listed as 100%. The “Detection” value in series [4] worked out at 58%. In series [5], this compound came in with a Protein unbound rate of 23.9.

With `C=C(F)C(=O)N1CCN(c2nc(OC[C@@]34CCCN3C[C@H](F)C4)nc3c2COC(c2c(F)c(N)cc(C)c2C(F)(F)F)C3)C[C@@H]1CC#N` (some centres unmarked) [Compound 17], in series [1] (1 μM), the CLint(mic) stood at 225 µL/min/mg. In addition, the CLint scaled at 1 μM in series [1] (cynomolgus monkey) is 303 mL/min/kg. Moreover, the half-life at 1 μM in series [1] (cynomolgus monkey) was found to be 6.2 min. Moreover, the “Detection” value was found to be 94% in series [2], 117% in series [3] and 77% in series [4]. This compound also registered a Protein unbound rate in series [5] of 7.8.

Broadly, the CLint scaled is the rate of metabolic loss divided by the concentration. A high value points to rapid turnover. As a reminder, the half-life is the time needed for the level to fall by half in the phase considered.
